Consider two compounds from paper PMC4405350, “From Broad-Spectrum Biocides to Quorum Sensing Disruptors and Mussel Repellents: Antifouling Profile of Alkyl Triphenylphosphonium Salts” (PLoS ONE, 2015).

The structures appear in SMILES notation.

Data set [1] is described as follows: Solubility in water (stock preparation). The data set is classed as physicochemical. The note with it: for 40-mM stock. The procedure:
Indeed, the inhibitions observed in violacein production for long alkyl chains (10–18, 20) were clearly correlated to the biocidal effect exerted by these compounds, with ‘therapeutic ratios’ (IC50 for growth inhibition/IC50 for violacein inhibition) around 1, in general (Table 2). Note that, as the length of the hydrocarbon chain becomes shorter, this ratio increased (8–9). […] To evaluate these compounds in further detail, […] stock solutions were prepared […] to avoid the use of high concentrations of DMSO in the bioassays. […] Serial two-fold dilutions (500–3.9 μM) were assayed. Consequently, the highest amount of DMSO used in the assay was 0.25% (v/v). […] Growth inhibitory effects are only observed at 500 μM, particularly for compound 7 (Fig 6D).

The subject of a further data set is Mushroom tyrosinase. Description: Tyrosinase fluorescence quenching (fluorescence spectroscopy). It counts as binding, Agaricus bisporus. The note with it: 280 nm excitation, 0–30 μM quencher. Here is the method: Fluorescence measurements of tyrosinase solutions were performed using an Edinburgh Instruments LifeSpec II fluorescence spectrometer, exciting the complexes at 280 nm with an Edinburgh Instruments EPLED-280 subnanosecond pulsed diode source (typically pulse width at half maximum around 860 ps, repetition rate 10 MHz) and using Edinburg Instruments F900 acquisition software. A multichannel plate photomultiplier was used as the detector using single photon counting technique. Lifetime estimation was made using instrument response function (IRF) reconvolution analysis with FAST software by Edinburgh Instruments, providing a temporal resolution around 0.2 ns. A blank medium without enzyme was used to confirm that the collected fluorescence comes from the enzyme molecules and any influence of the fluorescence of the quencher and buffer components on the enzyme fluorescence is negligible. […]
Fluorescence of enzymes is very sensitive to conformational changes of the protein structure. The interaction of tyrosinase inhibitors can be evaluated by the analysis of the intrinsic tyrosinase fluorescence when tyrosinase and inhibitor (quencher) molecules are mixed in a solution. In particular, we have evaluated the effect of the tyrosinase inhibitor 16. Quenching of tyrosinase fluorescence is expected as a consequence of conformational alterations induced by the quencher. […]

Details of data set [2]: method as in earlier work. To be noted: cited from earlier work.
For data set [3], the target named is Mushroom tyrosinase (EC 1.14.18.1) (Agaricus bisporus, UniProt C7FF04). Briefly: Tyrosinase inhibition assay (L-Dopa, dopachrome at 475 nm). The data set is classed as biochemical. The note with it: 15 and 30 μM inhibitor.
Chain of Mushroom tyrosinase (EC 1.14.18.1) (G1K3P4 entry or part of it): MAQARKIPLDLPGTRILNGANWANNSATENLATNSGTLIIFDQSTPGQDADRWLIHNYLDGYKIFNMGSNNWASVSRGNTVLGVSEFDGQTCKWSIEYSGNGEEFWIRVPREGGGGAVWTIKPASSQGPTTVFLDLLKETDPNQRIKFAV
Chain of Mushroom tyrosinase (EC 1.14.18.1) (C7FF04 1-392): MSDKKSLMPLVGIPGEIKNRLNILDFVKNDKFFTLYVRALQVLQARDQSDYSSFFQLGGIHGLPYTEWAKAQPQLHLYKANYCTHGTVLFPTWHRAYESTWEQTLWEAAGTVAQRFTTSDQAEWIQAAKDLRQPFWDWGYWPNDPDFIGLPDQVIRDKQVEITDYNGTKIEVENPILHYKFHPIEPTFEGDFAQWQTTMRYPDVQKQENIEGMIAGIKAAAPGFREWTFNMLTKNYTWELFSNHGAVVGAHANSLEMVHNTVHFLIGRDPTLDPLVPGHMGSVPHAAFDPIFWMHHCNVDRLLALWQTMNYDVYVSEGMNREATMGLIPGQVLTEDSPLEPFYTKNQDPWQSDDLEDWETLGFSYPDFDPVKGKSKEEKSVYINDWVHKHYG
Experimental: Tyrosinase inhibition assays were conducted as described in [52] with slight modifications. First, in order to characterize the Michaelis-Menten parameters of the enzyme kinetics, 100 μl of a mushroom tyrosinase solution (25 U) in sodium phosphate buffer (50 mM, pH 6.5) were pipetted in each well of a flat-bottom microtiter plate (Nunc 167008). Two-fold dilutions of L-Dopa, from 4.8 to 0.075 mM (final concentrations) were mixed (100 μl) with the enzyme solution. The enzymatic reaction was followed by measuring the absorbance at 475 nm every 30 s over 15 min, with shaking (150 rpm) between measurements. Temperature was kept constant at 30 °C. The values of KM and vmax under these conditions were obtained from Lineweaver-Burk plots. For tyrosinase inhibition assays, each well of the microtiter plate was filled with 100 μl of a mushroom tyrosinase solution and the appropriate amount of the test substance dissolved in DMSO. The compounds were pre-incubated with the enzyme at 30 °C for 10 min. Subsequently, the enzymatic reaction was triggered by addition of 100 μl of L-Dopa (1.2 mM test concentration). Formation of dopachrome was followed by measuring the absorbance at 475 nm as described above.

`CCCCC[P+](c1ccccc1)(c1ccccc1)c1ccccc1` [Compound 7]: the Solubility in water result in data set [1] is “poor solubility in water”.
As to `CCCCCCCCCCCCCCCC[P+](c1ccccc1)(c1ccccc1)c1ccccc1` [Compound 16], the “Stern-Volmer quenching constant KSV” value in the data set with Mushroom tyrosinase is “about 4490 M^-1”. In addition, the cmc threshold entry in data set [2] is “around 100 μM”. Also, in data set [3], the “Type of tyrosinase inhibition (Lineweaver-Burk plots)” value is listed as “non-competitive inhibition”.
